# Earlier results, collected in patent publication US20150157647A1, “METHODS AND CO[…] TO ACUTE RESPIRATORY DISTRESS SYNDROME” (priority 2013, published 2015).
# Experiments:
# [1] = system: endothelial monolayers obtained from rat lung; details: interferes with function of adherence proteins
# [2] = system: animal models of preeclampsia
# [3] = system: rodent brain contusion model; details: given 1 hour after the insult
Structure (SMILES),Effect on vascular permeability [1],In vitro vascular action,Effect on preeclampsia [2],Effect on tissue injury [3]
"C[C@]12CC[C@H](O)C[C@@]1(O)CC[C@@H]1[C@@H]2CC[C@]2(C)[C@@H](c3ccc(=O)oc3)C[C@H]3O[C@]132 [MBG, marinobufagenin]",causes vascular “leak”,vasoconstrictor,–,–
"C[C@]12CC[C@H](O)C[C@H]1CC[C@@H]1[C@@H]2CC[C@]2(C)[C@@H](c3ccc(=O)oc3)C[C@H]3O[C@]132 [RBG, epoxy-3β-hydroxy-5β-bufa-20,22-dienolide]",–,–,prevents preeclampsia,amelioration of tissue injury
